{"source": "patent US8299097B2", "about": "“Methods for treating inflammatory disorders” (The Brigham and Women's Hospital, Inc., priority 2008, dated 2012)", "key": {"P2Y12 receptors": {"test_system": "P2Y12 receptors", "test": "Competitive radioligand binding of [H^3]ADP to LAD2 cell membranes", "set-up": "species or system human", "procedure": "(§1) FIG. 10. Competitive ligand binding assays. 10A. […] Specific binding (typically 50-75% of the total) was calculated by subtracting the amount of radiolabel that was insensitive to the selective P2Y12 receptor antagonist 2-MesAMP. Nonspecific binding was essentially identical in the membranes with and without P2Y12 receptor knockdown. The dose response for the LAD2 membranes are from a single experiment repeated four times with similar results. The binding on the LAD2 cells with P2Y12 knocked down was repeated twice. 10B. Specific binding of radiolabeled ADP (2000 nM) to membranes of LAD2 cells. […] Results are mean±SD from three separate experiments. 10C. Conversion of radiolabeled LTD4 to LTE4 as confirmed by HPLC (left). […] Results in a second experiment were similar 10D. Competitive binding of radiolabeled 2-MesADP to COS-7 cells transfected with the human P2Y12 construct.\nCompetitive radioligand binding assays were performed using [H^3]ADP (the known natural ligand of P2Y12 receptors) and unlabeled LTs as competitors. […] The membranes from the transfectants expressing the forward construct bound [P^33]2-MesADP, a selective P2Y12 receptor agonist.\n[^3H] […] The converted product was extracted into 400 μl of methanol, evaporated in presence of nitrogen and diluted to the required concentration with the binding buffer for the binding assay. The conversion was confirmed by running an aliquot on high-performance reverse phase liquid chromatography. […] Briefly, cells were washed in PBS, resuspended in PBS supplemented with protease inhibitor cocktail and lysed by sonication for 5 min. The lysed cells were centrifuged at 100,000 Xg for 45 min and the microsomal pellet was resuspended in 1 ml PBS. Protein concentration was determined using Biorad Protein Assay Kit. 50 μg of membrane protein was incubated for 1 h at room temperature in 250 μl of 10 mM Hepes/KOH, pH 7.4, with various concentrations of radiolabeled ligand and cold competitor. Bound [^3H] was separated from free [^3H] by filtration through GF/C filters (Whatman) and washed twice with 10 mM Hepes/KOH, pH 7.4, containing 0.01% BSA. The residual membrane-associated [^3H] on the filter was determined in 2 ml scintillation fluid by beta counter (Perkin Elmer). For [^3H]ADP, specific binding was determined by subtracting the amount of [^3H] bound in the presence of 100 μM 2-MesADP from total binding."}, "[1]": {"test": "Direct binding of [H^3]LTE4 to LAD2 cell membranes", "set-up": "species or system human", "procedure": "as §1\nCompetitive radioligand binding assays were performed using [H^3]ADP (the known natural ligand of P2Y12 receptors) and unlabeled LTs as competitors. […]\n[^3H] […] Protein concentration was determined using Biorad Protein Assay Kit. […] The residual membrane-associated [^3H] on the filter was determined in 2 ml scintillation fluid by beta counter (Perkin Elmer). For [^3H]ADP, specific binding was determined by subtracting the amount of [^3H] bound in the presence of 100 μM 2-MesADP from total binding."}, "p2ry12^−/− mice": {"test_system": "p2ry12^−/− mice", "test": "LTE4 amplification of pulmonary inflammation in p2ry12^−/− mice and C57BL/6 controls", "assay_type": "in vivo, mouse", "procedure": "FIG. 4. […] 4A. […] Clopidogrel (500 μg/ml) was added to the drinking water of the indicated groups of mice for 72 h before the first intranasal dose of LTs, and was maintained throughout the treatment. Results are mean±SEM from at least 9 mice in each group. The experiments were repeated three times with similar results. 4B. PAS stains (left column) from representative mice in the indicated groups showing the effect of clopidigrel on goblet cell metaplasia. Higher magnification images of H & E stains (right) from the same animals showing cellular characteristics of the bronchovascular infiltrates. 4C. Effect of clopidogrel administration on the steady-state expression of IL-13 and MUC5AC mRNA as determined by real-time PCR of whole lung RNA extracted 24 h after the last OVA challenge of the indicated groups. Data are mean±SEM from 4-5 mice/group from a single experiment. Results in a second experiment were similar 4D-4F. […] 4D. Total cell numbers (top), percentages of eosinophils (middle), and total numbers of eosinophils in BAL fluid recovered 24 h after the last challenge with OVA. 4E. Goblet cell metaplasia (top) and representative PAS stains (bottom) from wild-type and p2ry12^−/− mice subjected to the same protocol. 4E. Inflammation scores from the same mice. Data in 4D-4F are from 4 mice per group. […] Quantitative assessment of bronchovascular inflammation as determined by H & E stains. […]"}}, "data": [{"smiles": "CCCCC/C=C\\C\\C=C/C=C/C=C/[C@@H](SC[C@H](N)C(=O)O)[C@@H](O)CCCC(=O)O", "note": "[LTE4]", "values": [{"measurement": "specific ADP binding blocked", "setting": "P2Y12 receptors; unlabeled LTE4 0.1 nM, mean±SEM, four experiments", "result": "39±9", "unit": "%"}, {"measurement": "specific ADP binding blocked", "setting": "P2Y12 receptors; unlabeled LTE4 1 nM, mean±SEM, four experiments", "result": "50±9", "unit": "%"}, {"measurement": "specific ADP binding blocked (plateau)", "setting": "P2Y12 receptors; unlabeled LTE4 1 μM, mean±SEM, four experiments", "result": "60±7", "unit": "%"}, {"measurement": "competition with labeled ADP, LTE4 compared with LTD4", "setting": "P2Y12 receptors; unlabeled competitors 10 μM", "result": "more efficacious than LTD4"}, {"measurement": "binding of [H^3]LTE4 to LAD2 cell membranes", "setting": "[1]", "result": "weakly bound"}, {"measurement": "potentiation of BAL fluid eosinophilia, goblet cell metaplasia and bronchovascular infiltration", "setting": "p2ry12^−/− mice; WT C57BL/6 controls", "result": "potentiated"}, {"measurement": "potentiation of BAL fluid eosinophilia, goblet cell metaplasia and bronchovascular infiltration", "setting": "p2ry12^−/− mice; p2ry12^−/− mice", "result": "severely blunted"}]}]}
